In experiment [1] the test system is eosinophil. Kind of experiment: Eosinophilia-Inhibitory Activity (Sephadex G-200 induced, bronchovesicular washing). In kind it is in vivo. Conditions: Rattus norvegicus, ip, 168 h, rats, 30 mg/kg intraperitoneally 10 minutes prior to each Sephadex administration (day 0, 2, 5), eosinophils at 7th day. How it is done:
Rats weighing 250°-350 g were used (5 per group). The test method was a partial modification of the method reported by B. A. Spicer et al (Br. J. Pharmacol (1990), 101, 821). Sephadex G-200 having a particle size of 40°-120 micron was suspended in isotonic saline at 0.5 mg/ml and boiled for 5 hours on the administration day to allow swelling. The suspension was administered to the rats from the tail vein by 1 ml at day 0, day 2 and day 5. At the 7th day from the initiation of the administration, the rats were anesthetized with 25% urethane (5 ml/kg) and fixed at a dorsal position. A cut down tube was inserted into trachea and applied with a three-way cock at its end. A 5 ml plastic syringe was set on one end of the three-way cock, a 5 ml plastic syringe containing 6 units/ml heparin-PBS (37° C.) was set on the other end and the liquid was injected. Using the empty 5 ml plastic syringe, the liquid was inserted or sucked out three times. This set of operations were repeated three times and the liquid obtained was preserved on ice as a bronchovesicular washing (ca 12 ml). The obtained washing was centrifuged [1000 rpm (150 g)×5 min, 4° C.] and the supernatant thereof was removed by decantation. The residue was re-suspended in 500 μl of RPMI-1640 medium. The total leukocytes in the suspension was counted by Colter counter (Sysmex, MICROCELLCOUNTER CC-120). Hinkelmann's Solution (900 μl), which is an eosinophil count reagent, was added to 100 μl of the re-suspension for staining (1:9), and the proportion of eosinophil count relative to the leukocyte count in one microscopic field was determined using an optical microscope (NIKON, BIOPHOT Type 104). The drug (test compound) was intraperitoneally administered in a dose of 30 mg/kg 10 minutes prior to the respective administration of Sephadex. The control group was administered with an isotonic saline containing 1% Tween 80 and 1% dimethyl sulfoxide instead of the drug.
Eosinophilia-inhibitory activity was calculated from the following formula.

Experiment [2] relates to T lymphocytes. Kind of experiment: Inhibitory action on T lymphocyte activation stimulated by concanavalin A ([3H]thymidine uptake). The experiment is classed as cell-based. The following applies: mouse thymus T lymphocytes, 3 μg/ml concanavalin A, test drug 10 μM, read-out: growth-inhibitory activity, minus percentage figures relative to the control group (thymidine uptake). The protocol:
Inhibitory action on T lymphocyte activation stimulated by concanavalin A
The test was performed according to the method of Mishell, B. B. et al ["Cell Proliferation" in Selected Methods in Cellular Immunology, V, XXiX, W. H. Freeman Co., San Francisco, Calif. pp. 153-160, 1980].
T lymphocytes were isolated from mouse thymus by a conventional method and suspended in DMEM. The cells (5×10^6 cells/ml) were incubated at 37° C. for 12 hours in the presence of 3 μg/ml of concanavalin A. The test drug was added at 10 μM under these incubation conditions. After 12 hours of incubation, 2 μCi [3H]thymidine was added to each well and the well was incubated for 48 hours. After the incubation, the thymidine uptake was determined by a scintillation counter. The growth-inhibitory activity is shown in minus percentage figures relative to the figure of the control group.

A word on the inhibition in vivo: it is the drop in the measured response relative to a control, in per cent. In experiment [1], `CNC(=S)n1ncnc1N` [Compound A, 5-amino-1-[methylamino(thiocarbonyl)]-1H-1,2,4-triazole] showed an inhibition in vivo at 30 mg/kg of 88%.
Same read-out and setting: under `CNC(=S)n1nc(N)nc1N` [Compound B, 3,5-diamino-1-[methylamino(thiocarbonyl)]-1H-1,2,4-triazole] stands 53%.
On the same count and under the same terms, under `CNC(=S)n1nc(-c2ccc(C#N)cc2)nc1N` [Compound C, 5-amino-3-(4-cyanophenyl)-1-[methylamino(thiocarbonyl)]-1H-1,2,4-triazole] stands 87%.
`CNC(=S)n1nc(-c2ccc(Cl)cc2)nc1N` [Compound D, 5-amino-3-(4-chlorophenyl)-1-[methylamino(thiocarbonyl)]-1H-1,2,4-triazole] had an inhibition in vivo at 30 mg/kg in experiment [1] of 87%. Besides, in experiment [2], the inhibition at 10 µM was -52%.
The molecule `CNC(=S)n1nc(-c2ccc(OC)cc2)nc1N` [Compound E, 5-amino-3-(4-methoxyphenyl)-1-[methylamino(thiocarbonyl)]-1H-1,2,4-triazole] yielded an inhibition in vivo at 30 mg/kg in experiment [1] of 70%.
On the same count and under the same terms, to `Cn1cnc2ncnn2c1=S` [Compound F, 6-methyl-1,2,4-triazolo[1,5-a]-1,3,5-triazine-7(6H)-thione] belongs 58%.
Same read-out and setting: under `Cn1cnc2nc(-c3ccc(C#N)cc3)nn2c1=S` [Compound G, 2-(4-cyanophenyl)-6-methyl-1,2,4-triazolo[1,5-a]-1,3,5-triazine-7(6H)-thione] stands 79%.
The molecule `Cn1cnc2nc(-c3ccc(Cl)cc3)nn2c1=S` [Compound H, 2-(4-chlorophenyl)-6-methyl-1,2,4-triazolo[1,5-a]-1,3,5-triazine-7(6H)-thione] showed an inhibition in vivo at 30 mg/kg in experiment [1] of 83%. For the same molecule, the inhibition at 10 µM in experiment [2] is -60%.
In the case of `CNC(=S)n1nc(-c2cccc(Cl)c2)nc1N` [Compound I, 5-amino-3-(3-chlorophenyl)-1-[methylamino(thiocarbonyl)]-1H-1,2,4-triazole], the inhibition in vivo at 30 mg/kg in experiment [1] is 70%.
Still for that read-out and setting: under `CNC(=S)n1nc(-c2ccc(F)cc2)nc1N` [Compound J, 5-amino-3-(4-fluorophenyl)-1-[methylamino(thiocarbonyl)]-1H-1,2,4-triazole] stands 80%.
On to `CNC(=S)n1nc(-c2ccc(Br)cc2)nc1N` [Compound K, 5-amino-3-(4-bromophenyl)-1-[methylamino(thiocarbonyl)]-1H-1,2,4-triazole], for which, in experiment [1], testing at 30 mg/kg gave an inhibition in vivo of 90%. Besides, the inhibition at 10 µM in experiment [2] is -35%.
On the same counts, the results for `CNC(=S)n1nc(-c2ccc(C(F)(F)F)cc2)nc1N` [Compound L, 5-amino-1-[methylamino(thiocarbonyl)]-3-(4-trifluoromethylphenyl)-1H-1,2,4-triazole] are 88% and -37%.
`CNC(=S)n1nc(-c2ccc(-c3ccccc3)cc2)nc1N` [Compound M, 5-amino-3-(4-phenylphenyl)-1-[methylamino(thiocarbonyl)]-1H-1,2,4-triazole] displayed an inhibition in vivo at 30 mg/kg in experiment [1] of 85%.
On the same count and under the same terms, to `CNC(=S)n1nc(-c2ccc(Cl)cc2Cl)nc1N` [Compound N, 5-amino-3-(2,4-dichlorophenyl)-1-[methylamino(thiocarbonyl)]-1H-1,2,4-triazole] belongs 90%; to `CNC(=S)n1nc(-c2ccc(Cl)c(Cl)c2)nc1N` [Compound O, 5-amino-3-(3,4-dichlorophenyl)-1-[methylamino(thiocarbonyl)]-1H-1,2,4-triazole], 88%.
On the same count and under the same terms, to `CNC(=S)n1nc(-c2ccc(Cl)cc2OC)nc1N` [Compound P, 5-amino-3-(4-chloro-2-methoxyphenyl)-1-[methylamino(thiocarbonyl)]-1H-1,2,4-triazole] belongs 85%; to `Cn1cnc2nc(-c3ccc(F)cc3)nn2c1=S` [Compound Q, 2-(4-fluorophenyl)-6-methyl-1,2,4-triazolo[1,5-a]-1,3,5-triazine-7(6H)-thione], 82%.
Take `Cn1cnc2nc(-c3ccc(Br)cc3)nn2c1=S` [Compound R, 2-(4-bromophenyl)-6-methyl-1,2,4-triazolo[1,5-a]-1,3,5-triazine-7(6H)-thione]: testing at 30 mg/kg in experiment [1] gave an inhibition in vivo of 88%. The inhibition at 10 µM in experiment [2] is -58%.
With `Cn1cnc2nc(-c3ccc(C(F)(F)F)cc3)nn2c1=S` [Compound S, 6-methyl-2-(4-trifluoromethylphenyl)-1,2,4-triazolo[1,5-a]-1,3,5-triazine-7(6H)-thione], the inhibition in vivo at 30 mg/kg in experiment [1] was determined as 89%. In experiment [2], the inhibition at 10 µM was -36%.
`Cn1cnc2nc(-c3ccc(-c4ccccc4)cc3)nn2c1=S` [Compound T, 6-methyl-2-(4-phenylphenyl)-1,2,4-triazolo[1,5-a]-1,3,5-triazine-7(6H)-thione] gave an inhibition in vivo at 30 mg/kg in experiment [1] of 80%.
Molecule `Cn1cnc2nc(-c3ccc(Cl)cc3Cl)nn2c1=S` [Compound U, 2-(2,4-dichlorophenyl)-6-methyl-1,2,4-triazolo[1,5-a]-1,3,5-triazine-7(6H)-thione] came in with an inhibition in vivo at 30 mg/kg in experiment [1] of 85%. For the same molecule, the inhibition at 10 µM in experiment [2] was -22%.
The matching figures for `Cn1cnc2nc(-c3ccc(Cl)c(Cl)c3)nn2c1=S` [Compound V, 2-(3,4-dichlorophenyl)-6-methyl-1,2,4-triazolo[1,5-a]-1,3,5-triazine-7(6H)-thione]: 87% and -40%.

The record behind these values is patent publication US5750545A, “Triazole derivative and pharmaceutical use thereof” (The Green Cross Corporation, priority 1993, dated 1998).
